Tests used:
[1] = test system: adult subjects with schizophrenia; assay: CGI responder rate, Clinical Study Two; type: in vivo, human; conditions: LOCF
Method: Notable differences were also observed between the 30 mg bifeprunox group and placebo for the change from baseline to endpoint in PANSS general psychopathology subscale score, BPRS total score, BPRS psychosis cluster score, PANSS responder rate, and CGI-I responder rate. In the study, a PANSS responder refers to a subject whose PANSS total score decreased by 20% or more from baseline to endpoint. A CGI-I responder refers to a subject who was categorized as “very much improved” or “much improved” in the CGI Global Improvement scale at endpoint.
Pharmacokinetic (PK) data of bifeprunox in schizophrenic subjects were also assessed and are presented in a separate report (combined with data from study S1543003).
(§1) Subjects who completed this study had the option to continue in the long-term. […] Risperidone-treated subjects were titrated from 2 mg to 6 mg daily over a three-day period and were subsequently maintained at 6 mg/day for the remainder of the treatment period. […] Blood samples were also obtained at Screening/Baseline, Week 3, and Week 6 for clinical laboratory assessments.
CLINICAL STUDY TWO: A CGI responder is defined as a subject who is categorized as “very much improved” or “much improved” on the CGI Improvement scale. […] A notable difference between the 30 mg bifeprunox group and placebo was seen (p=0.039).

[2] = test system: adult subjects with schizophrenia; assay: CGI Improvement score, Clinical Study Two; type: in vivo, human; conditions: 6 mg, LOCF
Method: Rating scale assessments were performed weekly, except for week 5, to measure the change from baseline to endpoint of the PANSS total score. Other assessments included: PANSS positive symptom subscale score, PANSS negative symptom subscale score, PANSS general pschopathology subscale score, BPRS total score, BPRS psychosis score, the CGI-S score, the CGI-I score, responder rates based on the PANSS total score, and the Calgary Depression Scale for Schizophrenia (CDSS). […]
as §1

[3] = test system: adult subjects with schizophrenia; assay: CGI responder rate, Clinical Study One; type: in vivo, human; conditions: 6 mg
Method: There were five treatment groups in this study. […] Study medication was administered once daily. After Baseline measurements were performed, the titration phase was begun. Bifeprunox treated subjects were titrated up to 5 mg, 10 mg or 20 mg according to a standardized titration schedule (Day 1: 0.125 mg, Day 2: 0.25 mg, Day 3: 0.5 mg, Day 4: 1.0 mg, Day 5: 2.0 mg, Day 6: 5.0 mg, Day 7: 10.0 mg, Day 8: 20 mg). When the assigned dose was reached, subjects were maintained at that dose for the remainder of the six-week treatment period.
CLINICAL STUDY ONE: A CGI responder is defined as a subject who is categorized as “very much improved” or “much improved” on the CGI Improvement scale.

[4] = test system: adult subjects with schizophrenia; assay: CGI responder rate, Clinical Study Three; type: in vivo, human; conditions: LOCF
Description: CLINICAL STUDY THREE: A CGI responder is defined as a subject who is categorized as “very much improved” or “much improved” on the CGI Improvement scale. […] No notable differences were observed between the placebo group and either of the two bifeprunox dose groups.

[5] = Body weight, Clinical Study Three
Description: To assess the safety and tolerability of bifeprunox using physical examination, weight, waist circumference, vital signs (pulse rate and systolic/diastolic blood pressure [BP], and oral temperature), 12-lead electrocardiogram (ECG), clinical laboratory assessments (hematology, biochemistry including fasting insulin level, fasting glucose, fasting lipid profile, urinalysis, special laboratory assessments for prolactin, IGF-1, IGFBP-3, and thyroid function), need for anticholinergic treatment during double-blind treatment period, concomitant medication use, adverse event (AE) monitoring, and assessments of abnormal movement including the Simpson-Angus Scale (SAS), Barnes Akathisia Scale (BAS), and Abnormal Involuntary Movement Scale (AIMS).

[6] = test system: adult subjects with schizophrenia; assay: BPRS psychosis cluster score, Clinical Study Three; type: in vivo, human; conditions: LOCF; for Change from Baseline in BPRS Psychosis Cluster Score, Mean (SD) / Change from Baseline in BPRS Psychosis Cluster Score, Median: Olanzapine 15 mg, ITT population
Description: SECONDARY OBJECTIVES To assess the efficacy of bifeprunox in treating schizophrenia using the Positive Symptom sub-scale score of the PANSS, the Negative Symptom sub-scale score of the PANSS, the General Psychopathology sub-scale of the PANSS, Brief Psychiatric Rating Scale (BPRS) total score derived from the PANSS, BPRS psychosis score derived from the PANSS, the Clinical Global Impression Severity of Illness score (CGI-S), the Clinical Global Impression Improvement score (CGI-I), CGI-I responder rate, PANSS responder rate based on the PANSS total score, Calgary Depression Scale for Schizophrenia (CDSS), and Subject Satisfaction rating.
There were four treatment arms in this study, approximately 144 subjects per arm. […] After completing the Single-Blind Placebo Lead-in Period of at least three days, bifeprunox-treated subjects were titrated from 0.25 mg up to 20 mg/day or 30 mg/day according to a standardized titration scheme over a seven- or eight-day period, respectively. When the assigned dose was reached, subjects were maintained at that dose for the remainder of the six week treatment period. […] Subjects were hospitalized (if not already inpatients) after eligibility for study entry was verified, starting from the Screening Visit until at least 10 days after Baseline. Subjects could be hospitalized longer than 10 days if considered medically necessary by the Investigator. Rating scale assessments for efficacy and abnormal movement disorders were done weekly except for Week 5. […] Subject satisfaction with study medication was assessed at Week 6.

Q: Which results are given for `Cc1nc2n(c(=O)c1CCN1CCC(c3noc4cc(F)ccc34)CC1)CCCC2` [Risperidone, risperidone, reference compound]?
A: CGI Responder at Endpoint No, % ([1]; 6 mg): 48%; CGI Responder at Endpoint Yes, % ([1]; 6 mg): 52%; CGI-I responder rate (subjects much or very much improved) at Endpoint ([1]; risperidone 6 mg): 52%; CGI Improvement Minimally Improved, % ([2]; Week 2): (40%); CGI Improvement Minimally Worse, % ([2]; Week 2): (5%); CGI Improvement Much Improved, % ([2]; Week 2): (30%); CGI Improvement Much Worse, % ([2]; Week 2): (3%); CGI Improvement No Change, % ([2]; Week 2): (16%); CGI Improvement Very Much Improved, % ([2]; Week 2): (5%); CGI Improvement Minimally Improved, % ([2]; Week 3): (33%); CGI Improvement Minimally Worse, % ([2]; Week 3): (5%); CGI Improvement Much Improved, % ([2]; Week 3): (36%); CGI Improvement Much Worse, % ([2]; Week 3): (5%); CGI Improvement No Change, % ([2]; Week 3): (13%); CGI Improvement Very Much Improved, % ([2]; Week 3): (9%); CGI Improvement Minimally Improved, % ([2]; Week 4): (25%); CGI Improvement Minimally Worse, % ([2]; Week 4): (5%); CGI Improvement Much Improved, % ([2]; Week 4): (38%); CGI Improvement Much Worse, % ([2]; Week 4): (5%); CGI Improvement No Change, % ([2]; Week 4): (14%); CGI Improvement Very Much Improved, % ([2]; Week 4): (13%); CGI Improvement Minimally Improved, % ([2]; Week 6/Endpoint): (23%); CGI Improvement Minimally Worse, % ([2]; Week 6/Endpoint): (5%); CGI Improvement Much Improved, % ([2]; Week 6/Endpoint): (36%); CGI Improvement Much Worse, % ([2]; Week 6/Endpoint): (5%); CGI Improvement No Change, % ([2]; Week 6/Endpoint): (15%); CGI Improvement Very Much Improved, % ([2]; Week 6/Endpoint): (16%); CGI Improvement Very Much Worse, % ([2]; Week 6/Endpoint): (<1%); CGI Responder at Endpoint (LOCF), % [3]: 36%

Q: Which “CGI Responder No, %” value ([4]; 15 mg, Week 6/Endpoint) does the source give for `Cc1cc2c(s1)Nc1ccccc1N=C2N1CCN(C)CC1` [Olanzapine, olanzapine, reference compound] here?
A: 54%

Q: What about the “CGI Responder Yes, %” value ([4]; 15 mg, Week 6/Endpoint) of the same molecule?
A: 46%

Q: What about the “CGI-I responder rate (subjects much or very much improved) at Endpoint” value ([4]; olanzapine 15 mg) of the same molecule?
A: 46%

Q: And the “Weight, Baseline, Max” value ([5]; Olanzapine 15 mg)?
A: 300 lbs

Q: And the “Weight, Baseline, Mean (SD)” value ([5]; Olanzapine 15 mg)?
A: 175.2 (52.7) lbs

Q: What about the “Weight, Baseline, Min” value ([5]; Olanzapine 15 mg) of the same molecule?
A: 68 lbs

Q: What about the “Weight, Change from Baseline at Endpoint, Max” value ([5]; Olanzapine 15 mg) of the same molecule?
A: 31 lbs

Q: What about the “Weight, Change from Baseline at Endpoint, Mean (SD)” value ([5]; Olanzapine 15 mg) of the same molecule?
A: 5.2 (6.9) lbs

Q: What about the “Weight, Change from Baseline at Endpoint, Median” value ([5]; Olanzapine 15 mg) of the same molecule?
A: 4 lbs

Q: And the “Weight, Change from Baseline at Endpoint, Min” value ([5]; Olanzapine 15 mg)?
A: −7 lbs

Q: And the “Weight, Change from Baseline at Week 6, Max” value ([5]; Olanzapine 15 mg)?
A: 31 lbs

Q: What about the “Weight, Change from Baseline at Week 6, Mean (SD)” value ([5]; Olanzapine 15 mg) of the same molecule?
A: 5.9 (7.3) lbs

Q: And the “Weight, Change from Baseline at Week 6, Median” value ([5]; Olanzapine 15 mg)?
A: 5 lbs

Q: And the “Weight, Change from Baseline at Week 6, Min” value ([5]; Olanzapine 15 mg)?
A: −7 lbs

Q: What about the “mean body weight (in words)” value ([5]; olanzapine 15 mg, 6 weeks) of the same molecule?
A: an increase in weight

Q: What about the “Change from Baseline in BPRS Psychosis Cluster Score, Mean (SD)” value ([6]; Week 1) of the same molecule?
A: −1.9 (2.3)

Q: And the “Change from Baseline in BPRS Psychosis Cluster Score, Median” value ([6]; Week 1)?
A: −2

Q: And the “Change from Baseline in BPRS Psychosis Cluster Score, Mean (SD)” value ([6]; Week 2)?
A: −3.1 (2.6)

Q: And the “Change from Baseline in BPRS Psychosis Cluster Score, Median” value ([6]; Week 2)?
A: −3

Q: What about the “Change from Baseline in BPRS Psychosis Cluster Score, Mean (SD)” value ([6]; Week 3) of the same molecule?
A: −4.0 (3.2)

Q: What about the “Change from Baseline in BPRS Psychosis Cluster Score, Median” value ([6]; Week 3) of the same molecule?
A: −4

Q: What about the “Change from Baseline in BPRS Psychosis Cluster Score, Mean (SD)” value ([6]; Week 4) of the same molecule?
A: −4.4 (3.5)

Q: What about the “Change from Baseline in BPRS Psychosis Cluster Score, Median” value ([6]; Week 4) of the same molecule?
A: −5

Q: And the “Change from Baseline in BPRS Psychosis Cluster Score, Mean (SD)” value ([6]; Week 6/Endpoint)?
A: −4.9 (4.0)

Q: What about the “Change from Baseline in BPRS Psychosis Cluster Score, Median” value ([6]; Week 6/Endpoint) of the same molecule?
A: −5

Q: What about the “mean change (SD) from Baseline to Endpoint in BPRS psychosis cluster score” value ([6]; olanzapine 15 mg, ITT) of the same molecule?
A: −4.9 (4.0)

From patent publication US20090068290A1, “BIFEPRUNOX DOSES FOR TREATING SCHIZOPHRENIA” (priority 2006, published 2009)
